Source: ChEMBL document CHEMBL1201862, “PubChem BioAssay data set” (2004)
Activity calls are given as the source filed them. Rule as the data show it, for most assays here: actives have a measured EC50 and inactives only a lower limit.

Legend:
[1] = luciferase reporter signal suppression in cells – H4 neuroglioma cells, luminescence, dose response (AID 1990); assay type: functional, cell-based
[2] = Luminescence Cell-Based Dose Response HTS to Identify Inhibitors of 5'UTR Stem-Loop Driven Prion Protein mRNA Translation in H4 Neuroglioblastoma Cells. [Related pubchem assays: 1827 (Project Summary), 1813 (Primary HTS)]; assay type: functional
[3] = alpha-synuclein stem-loop luciferase translation blockers – H4 neuroglioma cells, luminescence, confirmation (AID 1988); assay type: functional, cell-based
[4] = test system: Streptococcus sp. 'group A'; experiment: Streptococcus pyogenes SK(-)GAS viability under kanamycin – luminescence, BacTiterGlo, confirmation, counter-screen for streptokinase expression inhibitor project, dose response (AID 1900); assay type: functional, organism-based
[5] = molecular target: T1, Corticotropin-releasing factor receptor 2/Corticotropin-releasing factor-binding protein (Homo sapiens, UniProt P24387+Q13324); experiment: Dose Response confirmation of uHTS hits for small molecule antagonists of the CRF-binding protein and CRF-R2 receptor complex.; assay type: functional; conditions: read-out: IC50_Mean
T1 sequence (Q13324 whole entry): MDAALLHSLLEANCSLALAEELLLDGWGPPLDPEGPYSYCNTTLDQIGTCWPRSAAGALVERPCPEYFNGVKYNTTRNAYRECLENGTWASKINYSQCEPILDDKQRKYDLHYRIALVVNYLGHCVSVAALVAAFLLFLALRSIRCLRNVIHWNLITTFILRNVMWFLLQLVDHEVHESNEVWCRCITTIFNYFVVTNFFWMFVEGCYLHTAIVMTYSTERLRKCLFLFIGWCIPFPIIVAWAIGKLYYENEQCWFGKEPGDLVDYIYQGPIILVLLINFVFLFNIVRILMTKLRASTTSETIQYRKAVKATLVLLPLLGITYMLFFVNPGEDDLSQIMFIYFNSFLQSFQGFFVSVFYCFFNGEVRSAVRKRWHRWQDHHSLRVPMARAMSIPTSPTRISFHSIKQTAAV
T1 sequence (P24387 whole entry): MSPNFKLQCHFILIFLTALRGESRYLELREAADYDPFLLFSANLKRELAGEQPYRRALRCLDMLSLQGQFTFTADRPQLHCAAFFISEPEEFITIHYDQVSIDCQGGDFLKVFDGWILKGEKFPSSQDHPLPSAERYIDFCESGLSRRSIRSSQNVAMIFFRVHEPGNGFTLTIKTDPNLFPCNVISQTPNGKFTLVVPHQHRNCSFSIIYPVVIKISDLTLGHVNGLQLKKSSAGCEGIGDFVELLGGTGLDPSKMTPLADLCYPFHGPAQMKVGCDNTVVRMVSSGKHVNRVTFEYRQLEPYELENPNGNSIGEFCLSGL

[6] = molecular target: T1, Corticotropin-releasing factor receptor 2/Corticotropin-releasing factor-binding protein; experiment: activators of CRF receptor 2 with binding protein – uHTS hits, confirmation (AID 602473); assay type: functional; conditions: read-out: EC50_Mean
[7] = molecular target: T2, Streptokinase A (Streptococcus pyogenes serotype M1, UniProt P10520); experiment: viability-normalized secreted streptokinase activity reduction – plasminogen activation absorbance, OD405, dose response (AID 1914); assay type: functional, Streptococcus pyogenes M1 GAS;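 also: secreted streptokinase activity via plasminogen activation per viability signal from cell pellet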
T2 sequence (P10520 whole entry): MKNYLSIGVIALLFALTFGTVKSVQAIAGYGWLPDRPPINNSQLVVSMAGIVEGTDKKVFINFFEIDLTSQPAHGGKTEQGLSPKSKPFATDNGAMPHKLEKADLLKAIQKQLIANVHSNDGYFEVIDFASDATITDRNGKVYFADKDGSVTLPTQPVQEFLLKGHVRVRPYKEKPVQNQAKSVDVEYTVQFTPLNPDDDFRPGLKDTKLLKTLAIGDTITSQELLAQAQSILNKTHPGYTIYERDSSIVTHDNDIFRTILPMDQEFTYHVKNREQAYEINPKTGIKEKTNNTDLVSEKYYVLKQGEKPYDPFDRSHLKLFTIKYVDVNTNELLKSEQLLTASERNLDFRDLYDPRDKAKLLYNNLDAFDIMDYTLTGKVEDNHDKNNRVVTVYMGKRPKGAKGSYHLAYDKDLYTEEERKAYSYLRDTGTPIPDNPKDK

[8] = test system: Streptococcus; experiment: GAS UMAA2166 growth inhibition – luminescence, BacTiterGlo, counter-screen for streptokinase expression inhibitor project, dose response (AID 1915); assay type: functional, organism-based;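 also: potency for reduction of bacterial viability or growth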
[9] = cells; assay type: functional, cell-based
[10] = cells; assay type: functional, cell-based; remark: listed apart in the source
[11] = P. falciparum Dd2 growth inhibitors, dose response, SYBR Green, cherry-picked samples (AID 1159567); assay type: functional, cell-based
[12] = Trypanosoma cruzi growth suppression in host cells – NIH3T3 host cells, beta-gal luminescence, confirmation (AID 2044); assay type: functional, cell-based;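 also: intracellular parasites grown in NIH/3T3 mouse fibroblasts as host cells; luminescent beta-galactosidase reporter signal from transgenic T. cruzi replicating inside host cells; inhibitors lower the luminescence signal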
[13] = NIH3T3 cell viability loss – ATP luminescence, mouse fibroblasts, counter-screen, dose response (AID 2010); assay type: functional, cell-based;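 also: cells exposed to compound for about 90 hours before reading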
[14] = test system: INS1; experiment: INS-1E survival protection against cytokine death – cell-based, luminescence, retest, dose response (AID 449756); assay type: functional; conditions: Rattus norvegicus;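 also: cell death triggered by IL-1 beta plus TNF-alpha plus IFN-gamma mixture; protective hits raise ATP signal compared with cytokine alone wells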

## COCCn1c(=O)c2c(nc3n2CC(C)CN3CCc2ccccc2)n(C)c1=O (centres undefined)
[1]
  EC50: > 120 µM (not active)
[2]
  EC50: > 120 µM (not active)
[3]
  EC50: > 120 µM (not active)

## Cc1ccc(S(=O)(=O)N2c3ccccc3OCC2C(C)(C)C)cc1 (centres undefined)
[4]
  EC50: 16.4 µM (active)
[5]
  IC50: > 47.1 µM (inactive)
[6]
  EC50: > 53 µM (inactive)
[7]
  EC50: 16.9 µM (active)
[8]
  EC50: > 150 µM (not active)

## CCN(CCN(C)C)C(=O)C1CCN(S(=O)(=O)c2c(C)noc2/C=C/c2ccccc2F)CC1
[9]
  EC50: 21.2 µM (active)
[10]
  EC50: > 350 µM (not active)

## COc1ccc(F)cc1CSc1nnnn1-c1ccc(O)cc1
[9]
  EC50: > 350 µM (not active)
[10]
  EC50: > 350 µM (not active)

## C[C@@H]1CN([C@@H](C)CO)C(=O)c2c(c3ccccc3n2C)-c2ccccc2CO[C@H]1CN(C)C(=O)Nc1ccccc1C(F)(F)F
[11]
  AC50: 4.33 µM (active)

## Cc1nc2c(C(=O)Nc3ccc(N4CCCC(O)C4)cc3)snc2c(=O)[nH]1 (centres undefined)
[7]
  EC50: > 150 µM (not active)

## CCCn1c(C2CCCN2c2nc(-c3cccc(Br)c3)cs2)nc2cc(Cl)c(Cl)cc21 (centres undefined)
[4]
  EC50: 2.99 µM (active)
[7]
  EC50: > 150 µM (not active)
[8]
  EC50: 56.5 µM (active)

## Cc1ccc(-n2c(SCC(=O)NCCC3=CCCCC3)nc3nnc(C)c-3c2N)cc1Cl
[1]
  EC50: 23 µM (active)
[2]
  EC50: 75.9 µM (active)
[3]
  EC50: > 120 µM (not active)

## Cc1nn(Cc2ccc(Cl)cc2Cl)c(C)c1NC(=O)NC12CC3CC(CC(C3)C1)C2
[4]
  EC50: 7.54 µM (active)
[7]
  EC50: 32.7 µM (active)
[8]
  EC50: 33.4 µM (active)

## Cc1cccc(/C=C2\Sc3ccc(C(=O)N4CCC(C)CC4)cc3N(C)C2=O)c1
[4]
  EC50: 3.11 µM (active)
[7]
  EC50: 20.3 µM (active)
[8]
  EC50: 7.54 µM (active)

## CO[C@H]1CN(C)C(=O)c2cc(NC(=O)c3nc4ccccc4s3)ccc2OC[C@H](C)NC[C@@H]1C
[11]
  AC50: 13.5 µM (active)

## Cc1ccc(C[n+]2cccc(-c3ccccc3)c2)c(C)c1
[12]
  EC50: 0.552 µM (active)
[13]
  EC50: 11.9 µM (active)
[14]
  AC50: 4.24 µM (active)

## CCCNC(=O)c1ccc(N2CCC3(CC2)CC(c2ccccc2)=NO3)c(NC(=O)c2ccccc2)c1
[1]
  EC50: 18.7 µM (active)
[2]
  EC50: > 120 µM (not active)
[3]
  EC50: 12.7 µM (active)

## N#Cc1ccc(-c2ccc([C@H]3[C@@H](CO)N4C(=O)CN(C(=O)Cc5ccccc5)C[C@@H]34)cc2)cc1
[11]
  AC50: 18.1 µM (active)

## O=C(NNC(=O)c1cccnc1SCc1cccc([N+](=O)[O-])c1)c1ccc(F)cc1
[14]
  AC50: 7.02 µM (active)

## OCc1cccc[n+]1CCc1ccccc1
[1]
  EC50: > 120 µM (not active)
[2]
  EC50: 48.4 µM (active)
[3]
  EC50: > 120 µM (not active)

## CN(C)C(=O)c1ccc(NC(=O)c2cccc(S(=O)(=O)N3CCCCCC3)c2)cc1
[14]
  AC50: > 260 µM (inactive)
